In US12448377B2, “Heterocyclic compound” (Takeda Pharmaceutical Company Limited, priority 2019, dated 2025):

Columns and labels:
[1] = system: SD rats; test: Evaluation of wake-promoting effects in SD rats (EEG/EMG); assay type: in vivo, rat; settings: s.c., at ZT5, 3 hr after administration
Procedure: The wake-promoting effects were evaluated by measuring the electroencephalogram (EEG) and electromyogram (EMG) in SD rats (Crl:CD(SD), CHARLES RIVER LABORATORIES JAPAN, Kanagawa, Japan.) using chronic experiment telemetry automatic measurement system (PhysioTel® and PONEMAH™, Data Sciences International Inc., Minnesota, U.S.A.). Under pentobarbital sodium anesthesia (50 mg/kg, intraperitoneal, Somnopentyl®, Kyoritsu Seiyaku, Tokyo, Japan), […] male SD rats were surgically implanted with a transmitter. Bilateral EEG leads were positioned at the parietal area in contact with the dura and fixed to the cranium with dental cement. Bilateral EMG leads were fixed to the back cervical muscles. The transmitter was implanted under the skin of the back, and the head skin was sutured. After recovery for at least 1 week, the cortical EEG and EMG signals in SD rats were recorded using a high-end data acquisition and real-time analysis system (PONEMAH™). The signals were automatically scored in 4 sec epochs by a sleep scoring system (SleepSign®, Kissei Comtec Co., Ltd.). Test compound (1 or 10 mg/kg, Table 3) dissolved in a mixed solution containing 10% DMSO, 10% Cremophor EL, 20% PEG400 and 60% H2O, or vehicle (i.e., a mixed solution containing 10% DMSO, 10% Cremophor EL, 20% PEG400 and 60% H2O) was administered subcutaneously (s.c.) to the SD rats at zeitgeber time (ZT) 5 (when the start time of the light cycle was ZT0) in a volume of 5 mL/kg. The EEG and EMG recordings were performed for 3 hr after the compound administration. The time spent in wakefulness for 3 hr after administration (% of vehicle treatment) was calculated by using SleepSign.

[2] = molecular target: T1, human orexin type 2 receptor (Homo sapiens, UniProt O43614); test: Measurement of orexin type 2 receptor agonist activity (calcium fluorescence, CHO cells forcibly expressing human OX2 receptor); assay type: cell-based; settings: compound at 3 μM, DMSO = 0%, orexin A (human) 10 nM = 100%
T1 construct: expressed in transfected cells
T1 sequence (O43614 1-444): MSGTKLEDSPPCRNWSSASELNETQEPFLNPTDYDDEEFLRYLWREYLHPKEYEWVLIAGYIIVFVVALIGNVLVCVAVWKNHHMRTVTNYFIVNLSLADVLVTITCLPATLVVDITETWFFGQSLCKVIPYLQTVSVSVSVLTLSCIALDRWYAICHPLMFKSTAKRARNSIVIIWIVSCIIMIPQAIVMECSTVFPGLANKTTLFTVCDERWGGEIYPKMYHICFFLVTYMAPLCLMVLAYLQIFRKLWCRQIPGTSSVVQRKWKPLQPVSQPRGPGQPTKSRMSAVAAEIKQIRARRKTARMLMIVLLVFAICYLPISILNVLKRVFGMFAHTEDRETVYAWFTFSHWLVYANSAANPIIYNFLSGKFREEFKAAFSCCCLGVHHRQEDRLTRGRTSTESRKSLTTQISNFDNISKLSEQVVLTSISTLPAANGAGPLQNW
In short: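 Agonism measured as Fluo-4 calcium fluorescence in CHO-K1 cells stably expressing human OX2 receptor, loaded 30 min at 37° C then 30 min at room temperature with probenecid. Signal recorded about 2 min 40 sec after compound; activity (%) normalised to DMSO (0%) and 10 nM human orexin A (100%).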

Row | Compound | Wakefulness time (% of vehicle treatment) (Mean, n = 2) ([1]; 1 mg/kg) | OX2R agonist activity (3 μM, %) [2] | Wakefulness time (% of vehicle treatment) (Mean, n = 2) ([1]; 10 mg/kg)
1 | Cc1ccc2n(c1=O)C(COC1CCC(C3CC3)CC1)C(NS(C)(=O)=O)CC2 [Example 111, rel-N-[(3S,4R)-4-({[(1s,4S)-4-cyclopropylcyclohexyl]oxy}methyl)-7-methyl-6-oxo-1,3,4,6-tetrahydro-2H-quinolizin-3-yl]methanesulfonamide] | 126.37 % of vehicle treatment | 98% | 
2 | CC#CC1CCC(OCC2C(NS(C)(=O)=O)CCc3ccc(C)c(=O)n32)CC1 [Example 146, rel-N-[(3S,4R)-7-methyl-6-oxo-4-({[(1s,4S)-4-(prop-1-yn-1-yl)cyclohexyl]oxy}methyl)-1,3,4,6-tetrahydro-2H-quinolizin-3-yl]methanesulfonamide] |  | 104% | 166.75 % of vehicle treatment
3 | CCCC1CCC(OCC2C(NS(=O)(=O)C3CC3)CCc3ccc(C)c(=O)n32)CC1 [Example 78, rel-N-[(3S,4R)-7-methyl-6-oxo-4-({[(1r,4S)-4-propylcyclohexyl]oxy}methyl)-1,3,4,6-tetrahydro-2H-quinolizin-3-yl]cyclopropanesulfonamide] | 130.53 % of vehicle treatment | 88% | 
